According to US8334277B2, “{4-[2-(dimethylamino)-1-(1-hydroxycyclohexyl)ethyl]phenoxy}phosphate or a pharmaceutically acceptable salt thereof, a production method therefor and a pharmaceutical composition for preventing and treating central nervous system disorders containing the same as an active component” (JE IL Pharmaceutical Co., Ltd., priority 2008, dated 2012):

Tests used:
[1] = Measurement of solubility in water (HPLC, saturated solution); assay type: physicochemical
Protocol: Experiment was conducted to measure water solubility of ODV phosphate compound of the present invention.
40, 50 and 60 mg of ODV phosphate composition prepared by the embodiment was mixed in 100 mL of water to form 0.4, 0.5 and 0.6 mg/mL concentration of ODV phosphate solution respectively. The above ODV phosphate solution and internal standard substance were analyzed with HPLC to measure ODV phosphate according to the concentration of ODV phosphate and peak area ratio of internal standard substance, and a calibration curve was set. The HPLC analysis was done many times to measure the average value of the calibration curve.
An excessive amount of ODV phosphate compound (approximately 400 mg) prepared by the embodiment was dissolved in 2 mL of water and filtered to form a saturated solution. 1 mL of the above saturated solution was diluted with water to prepare 20 mL of solution. The diluting process was repeated many times to form saturated solution with 800 times of dilution rate. This solution and internal standard substance were analyzed with HPLC to measure ODV phosphate and peak area ratio of internal standard. The measured value was substituted in calibration curve to calculate the concentration, and multiply the dilution rate to measure solubility.

ICR mice = assay: Acute toxicity experiment, intraperitoneal injection, number of dead mice over 7 days; assay type: in vivo; details: for The number of death mice: Day 1, 8 mice
Protocol: Experiment was conducted to measure acute toxicity of ODV phosphate compound according to an embodiment of the present invention.
7-week-old ICR mice, weighing 25˜35 g each, were used in the experiment (SPF, production firm: coretech).

[2] = Pharmacokinetics experiment, oral administration, blood concentration by LC/MS/MS; assay type: in vivo, SD rats; details: 120 mg/kg oral
Protocol: 9-week-old female […], SD rats, weighing 320±20 g each, were used in the experiment (SPF, production firm: coretech). ODV phosphate compound prepared by the embodiment was dissolved in solvent (100% distilled water) and 120 mg/kg of the same was orally administered to 3 mice. After 0.08, 0.25, 0.5, 1, 2, 3, 4, 6 hours of administration, blood was taken from mice, and separated by centrifuge. The concentration of the separated blood was measured with LC/MS/MS. As a comparative example, ODV succinate hydrate was measured in the same manner explained above.
Cmax is the highest concentration level of blood in body, Tmax is the time to reach the highest concentration level of blood, AUC0-t is square between blood concentration to time and time, AUC0-inf is square between blood concentration and time, and t1/2 is half-life of compound in body, and MRTinf is remaining period of compound in body.

Row | SMILES | water solubility, times higher than ODV succinate ([1]; 313.4 vs […]) [times] | solubility ([1]; thermodynamic from solid) [mg/mL] | dead mice over the whole observation (ICR mice; 450 mg/kg i.p., for 7 days, 8 mice) | AUC0-inf compared with ODV succinate hydrate [2] | Cmax compared with ODV succinate hydrate [2] | The number of death mice (ICR mice; 350 mg/kg i.p.) | The number of death mice (ICR mice; 450 mg/kg i.p.) | AUC0-inf ([2]; blood) [ng·h/mL] | Cmax ([2]; blood) [ng/mL] | MRTinf ([2]; blood) [h] | Tmax ([2]; blood) [h] | t1/2 ([2]; blood) [h] | AUC0-t ([2]; blood, sampling to 6 hours) [ng·h/mL]
1 | CN(C)CC(c1ccc(OP(=O)(O)O)cc1)C1(O)CCCCC1 (stereo not shown) [ODV phosphate, {4-[2-(dimethylamino)-1-(1-hydroxycyclohexyl)ethyl]phenoxy}phosphate] | 4 | 313 | no mice were dead | noticeably higher | noticeably higher |  |  |  |  |  |  |  | 
2 | CN(C)CC(c1ccc(O)cc1)C1(O)CCCCC1.O=C(O)CCC(=O)O (stereo not shown) [ODV succinate] |  |  |  |  |  | 2 | 8 | 9268.8 | 2786.7 | 5.7 | 0.5 | 5.0 | 7017.4
